Target: T1, human Gal-3 (Homo sapiens, UniProt P17931)
T1 construct: made in house; host or cells: E. coli Rosetta (DE3) pLysS
Assay: Competitive inhibition of Gal-3 binding to immobilized ASF
Conditions: for IC50: 5 µM galectin-3 binding to immobilized ASF; for Relative potency: related to the corresponding tetrasaccharide (4 or 5); for Relative potency per glycan: related to the corresponding tetrasaccharide and to one binding site
Experimental: Neo-glycoproteins were used as inhibitors of Gal-3 to ASF binding in competitive inhibition assays performed as described. The standard glycoprotein ASF (Sigma-Aldrich) was immobilized in microtiter plates as described above for neo-glycoproteins. After blocking, 5 µM Gal-3 and varying concentration of 11j, 11k, 11g and 12j, 12k, 12g were simultaneously incubated for 1 h followed by detection of bound Gal-3 as described above. Measured data were fitted and IC50 values calculated using Sigma Plot software (Systat software GmbH).

T1 sequence (P17931 whole entry): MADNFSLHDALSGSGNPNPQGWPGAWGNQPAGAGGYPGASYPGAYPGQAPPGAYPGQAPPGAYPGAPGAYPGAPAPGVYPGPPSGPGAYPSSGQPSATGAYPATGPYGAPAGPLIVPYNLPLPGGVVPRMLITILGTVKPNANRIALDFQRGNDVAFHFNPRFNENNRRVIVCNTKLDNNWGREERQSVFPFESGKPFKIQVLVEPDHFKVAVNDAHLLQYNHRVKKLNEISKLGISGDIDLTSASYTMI

SMILES: CC(=O)N[C@@H]1[C@@H](O)[C@H](O[C@@H]2O[C@H](CO)[C@H](O)[C@H](O[C@@H]3O[C@H](CO)[C@@H](O[C@@H]4O[C@H](CO)[C@H](O)[C@H](O)[C@H]4O)[C@H](O)[C@H]3NC(C)=O)[C@H]2O)[C@@H](CO)O[C@H]1NC(=S)NCCNC(=O)OC(C)(C)C [Compound 4, Galβ1, 4GlcNAcβ1, 3Galβ1, 4GlcNAcβ1-linker-NH2-tBoc]
- IC50: 13 ± 3.43 µM
- Relative potency (5 µM galectin-3, ASF): 1.0 ± 0.26
- Relative potency per glycan (5 µM galectin-3, ASF): 1.0 ± 0.26

SMILES: CC(=O)N[C@@H]1[C@@H](O)[C@H](O[C@@H]2O[C@H](CO)[C@H](O)[C@H](O[C@@H]3O[C@H](CO)[C@@H](O[C@@H]4O[C@H](CO)[C@H](O)[C@H](O)[C@H]4NC(C)=O)[C@H](O)[C@H]3NC(C)=O)[C@H]2O)[C@@H](CO)O[C@H]1NC(=S)NCCNC(=O)OC(C)(C)C [Compound 5, GalNAcβ1,4GlcNAcβ1,3Galβ1,4GlcNAcβ1-linker-NH2-tBoc]
- Higher inhibition of Gal-3 binding compared to 4 (5 µM galectin-3, ASF, compared with LacNAc-LacNAc (4)): 1.5 fold
- IC50: 7.23 ± 0.87 µM
- Relative potency (5 µM galectin-3, ASF): 1.0 ± 0.12
- Relative potency per glycan (5 µM galectin-3, ASF): 1.0 ± 0.12

— publication PMC4598770, “Galectin Binding to Neo-Glycoproteins: LacDiNAc Conjugated BSA as Ligand for Human Galectin-3” (Biomolecules, 2015)
